# Results reported in patent US20260248833A1, “PYRIMIDINE NUCLEOSIDE TREATMENTS” (The Children`s Medical Center Corporation, priority 2022, published 2026).
# Entries after “also recorded” stand apart in the source; their conditions may differ.
# How the values were obtained:
# [1] = test system: super-telomerase cells (TERC-null 293T cells transfected with TERT and TERC); assay: TRF Southern blot telomere synthesis in super-telomerase cells; assay type: cell-based, human
# Procedure: (§1) Terminal Restriction Fragment Length Analysis: genomic DNA was isolated from cells using the Invitrogen Purelink Genomic DNA mini kit (Invitrogen). 1-3 μg of gDNA was digested with RsaI and HinfI for 2-3 hrs at 37° C. and loaded onto a 0.6% agarose gel followed by Southern blotting using the Telotaggg Telomere Length Assay Kit (Roche). Quantification was performed using the WALTER webtool.
# dT supplementation increases levels of dTTP and can reduce dCTP levels, leading to replication stress at high doses. Because replication stress signaling has been implicated in telomerase biology we asked whether replication stress induction explained the telomere length increases seen with dT treatment. We first tested whether telomere elongation is a universal response to replication stress-inducing compounds. […] However, cytotoxicity limited our ability to apply higher doses of replication stress-inducing compounds for time periods long enough to study telomere length changes. […] Using this system, we next asked how high-dose treatment with replication stress-inducing agents such as aphidicolin, hydroxyurea, and the TYMS inhibitor 5FU influence telomere synthesis compared to dT.
# [2] = test system: pCHK1-S345 and pRPA32-S33; assay: Immunoblot of replication stress signaling in iPSCs; assay type: cell-based, human; conditions: iPSCs treated with dT
# [3] = test system: pCHK1-S345 and pRPA32-S33; assay: Immunoblot of replication stress signaling in super-telomerase cells; assay type: cell-based, human
# telomerase = assay: TRAP assay on lysates from 293T cells treated with dT; assay type: cell-based, human; conditions: 293T cells treated with or without 100 μM dT, 3 days
# Procedure: TRAP assay: cell extracts for TRAP assays were made using TRAPeze™1×CHAPS Lysis Buffer (Roche) supplemented with RNASEin (Promega). Standard TRAP reactions (in FIG. 25a) were performed as described, with cell input normalized across samples using the Bio-Rad DC assay. TRAP assays were modified to enable unique dNTP concentrations in telomerase reactions from PCR reactions (FIG. 25) as follows: reactions were assembled with 1×TRAP buffer (20 mM Tris-HCl, pH 8.3; 1.5 mM MgCl2; 63 mM KCl; 0.05% Tween 20; 1 mM EGTA), TS, ACX, TNST, and NT primers as described (see Primers/Oligos below), dNTPs were added at physiologic concentrations (dATP 24 μM, dGTP 5.2 μM, dCTP 29 μM, dTTP 37 μM) unless otherwise mentioned in the figure legend, followed by telomerase extracts. TRAP assays were modified to detect GGAAAG repeats using the following primers: TS GGAAAG, TNST GGAAAG, ACX GGAAAG, and NT (see Primers/Oligos below). After addition of telomerase extracts, reactions were incubated for 30 minutes at 30° C. followed by heat inactivation at 95° C. for 5 minutes. […] Images were quantified for a given lane using ImageJ by measuring the signal of the telomerase repeat sized products divided by the signal of the internal control band for the lane, normalized to the same ratio for the untreated sample(s) in a given experiment. […]
# K562 cells = assay: Terminal restriction fragment (TRF) Southern blot telomere length, K562 cells; assay type: cell-based, human
# Procedure: (§2) Cell culture: K562 cells (ATCC) were grown in RPMI1 1640 (Gibco) media supplemented with 10% fetal bovine serum. 293T cells (ATCC) were grown in DMEM (Gibco) supplemented with 10% fetal bovine serum, and were subcultured using 0.05% trypsin (Gibco). iPSCs were derived, characterized and cultured as previously described. iPSCs were grown in Essential 8 Media (Life Technologies) supplemented with the ROCK inhibitor Y271632 (Stem Cell Technologies) at 10 μM on plates coated with hES qualitied Matrigel matrix (Corning) and were subcultured using Accutase (Stem Cell Technologies).
# as §1
# [4] = test system: iPSCs from a healthy donor; assay: TRF Southern blot telomere length, wildtype iPSCs; assay type: cell-based, human
# Procedure: as §2, §1
# [5] = test system: mouse model of TK2 deficiency; conditions: 520 mg/kg/day of dT; cited from earlier work
compound,measurement,setting,value
"Cc1cn([C@H]2C[C@H](O)[C@@H](CO)O2)c(=O)[nH]c1=O [dT, 1-[(2R,4S,5R)-4-Hydroxy-5-(hydroxymethyl)oxolan-2-yl]-5-methylpyrimidine-2,4 (1H,3H)-dione]",dose at which increased telomere repeat synthesis could be observed,[1]; 30 hours,40 µM
same,rescue of telomere synthesis following 5FU treatment,[1]; dT supplementation with maximal doses of 5FU,restored telomere elongation despite maximal doses of 5FU; also recorded: fully rescued telomere synthesis
same,maximal rate of telomere elongation,"[1]; high-dose dT treatment, 30 hours, baseline 103 bp/hour",625 bp/hour
same,telomere repeat synthesis / telomere elongation by telomerase,[1]; treatment for 30 hours,robustly increased telomere repeat synthesis in a dose-responsive and telomerase-dependent manner
same,replication stress signaling,[2],no indication of replication stress signaling
same,replication stress signaling at the telomere-active dose,[3]; 40 μM dT,far below doses that induce replication stress signaling
same,replication stress signaling,"[3]; highest doses, 30 hours",induced similar levels of replication stress signaling
same,telomerase activity in lysates (abundance of active telomerase enzymes),telomerase,no difference in telomerase activity
same,thymidine doses driving robust telomere length increases,K562 cells; 34 days of culture in low dose thymidine (FIGS. 2L and 2N),≥ 5 µM
same,doses leading to robust telomere elongation in less than 10 days,K562 cells; K562 cells,≥ 50 µM
same,telomere length,"K562 cells; K562 cells, 100 μM of the indicated deoxynucleoside(s) for 8 days","rapidly and robustly increases telomere length; also recorded: promoted telomere lengthening, as did dT alone"
same,telomere lengthening following dT with dNTPase-deficient SAMHD1 H215A or K312A variants,"K562 cells; K562 cells, 10 days",could not restrict telomere lengthening following dT supplementation
same,telomere lengthening following dT treatment with overexpression of wild-type SAMHD1,"K562 cells; K562 cells, 10 days, compared to EGFP control",reduced telomere lengthening following dT treatment
same,lowest dT dose giving robust telomere lengthening without growth change,"K562 cells; K562 cells, 34 days",≥ 5 µM
same,telomere lengthening upon dT treatment in TK1-edited cells,"K562 cells; K562 cells, CRISPR/Cas9 TK1 edited, 10 days",complete abrogation of the telomere lengthening
same,telomere lengthening upon dT treatment in TK2-edited cells,"K562 cells; K562 cells, CRISPR/Cas9 TK2 edited, 10 days",no difference in telomere length increases compared to control AAVS1-targeted cells
same,"telomere elongation, increase of base pairs (bp) per day","K562 cells; K562 cells, at 100 μM dT",204 bp per day
same,"telomere elongation, increase of base pairs (bp) per day","K562 cells; K562 cells, at […] dT",132 bp per day
same,telomere lengthening in TYMS-knockout cells,"K562 cells; K562 cells, baseline 16 μM dT, plus 100 μM additional dT or 1 mM dU, 10 days",responsive to dT to promote telomere lengthening
same,telomere elongation,"[4]; 100 μM dT, three weeks",~ 2000 bp
same,telomere elongation,[4]; dT for three weeks,significantly elongated telomeres
same,lifespan,[5],increased lifespan in a mouse model of TK2 deficiency
